Measurements taken from paper PMC5944028, “Nonclinical and clinical pharmacological characterization of the potent and selective cathepsin K inhibitor MIV-711” (Journal of Translational Medicine, 2018).

Columns and labels:
[1] = Human plasma pharmacokinetics, single ascending dose study; type: in vivo, human healthy subjects; conditions: for AUC0–t / AUCinf / Cmax / Cmax/dose / t½: geometric mean (CV%); for tmax: median (min–max)
Source text: (§1) Twenty-seven healthy male and female subjects (18 male and 9 female) of any ethnic origin (24 White, 1 Asian, 1 Black, 1 Black/Caribbean White), aged between 19 and 64 years, and with a body mass index (BMI) between 18.0 and 32.0 kg/m^2, were selected for this study. Inclusion criteria for enrollment followed the standard practice for first-in-man studies.
(§2) This was a randomized, double-blind, placebo-controlled, sequential, single-ascending dose study conducted at a single site with the objective of evaluating the safety, tolerability, pharmacokinetics (PK) and pharmacodynamics of MIV-711. Subjects were randomized into 3 groups using a computer-generated pseudo-random permutation procedure. Each group consisted of 9 subjects with at least 3 subjects of each gender per group and subjects participated in 1–2 treatment periods. There was a minimum of 10 days between dose escalations and a minimum of 20 days between dosing occasions for individual subjects. For each subsequent dosing occasion, the decision to escalate the dose to the next level was taken after a thorough review of the safety, tolerability and PK data. In each treatment period, 7 subjects received MIV-711 and 2 received placebo (comprising of 1 subject of each gender). Dosing occurred on the morning of Day 1 following an overnight fast and subjects were kept in the fasted state until approximately 4.5 h after dosing. MIV-711 was given as a combination of 10 or 40 mg hard gelatin capsules, while placebo was given in similar capsules of identical appearance.
Blood samples were collected at pre-dose, 0.5, 1, 1.5, 2, 3, 4, 6, 8, 12, 16, 24, 36 and 48 h post-dose and processed into plasma for the measurement of concentrations of MIV-711. The PK analysis was conducted using WinNonlin Enterprise Version 5.2 (Pharsight Corporation, Mountain View, CA, USA).
The quantification of MIV-711 in monkey plasma was performed by taking 10–50 µL of plasma and mixing with 3 volumes of acetonitrile (10 s, Vibrofix). The sample was centrifuged (10 min, 20,000×g, 7 °C) and 5 µL of the supernatant was injected onto the liquid chromatography with tandem mass spectrometric detection (LC–MS/MS) system. The lowest concentration of the standard curves and the lower limit of quantification (LLOQ) was 1 nmol/L of MIV-711. The human plasma samples were prepared by protein precipitation for sample extraction followed by LC–MS/MS. The lowest concentration of the standard curves and the LLOQ was 4 nmol/L of MIV-711 using 25 µL of plasma.

[2] = Human safety and tolerability, single ascending dose study; type: in vivo, human healthy subjects
Source text: as §1, §2
Standard safety assessments were performed throughout the study and included physical examination, vital signs, 12-lead electrocardiogram (ECG), continuous ECG Holter monitoring, hematology, biochemistry, urinalysis and adverse event monitoring.
In the nonclinical studies, two-way ANOVA was used to assess the effects of MIV-711 on plasma CTX-I. Pearson’s correlation was used when comparing plasma exposure of MIV-711 with inhibitory effects on CTX-I. Student’s unpaired t test was used when assessing the effect of MIV-711 on urine biomarkers. In the clinical study, PK parameters were summarized by dose level using descriptive statistics. The dose proportionality for AUC and Cmax was assessed by using a power model with determination of the linear regression slope with a 95% confidence interval. Change in CTX-I from baseline at 24 h after dose was calculated by dose level and summarized using descriptive statistics. In addition, the 95% confidence interval for the difference between each MIV-711 group and the placebo group for these variables was calculated by dose level. Pearson’s correlation was used when comparing plasma exposure of MIV-711 with inhibitory effects on CTX-I. A time-matched and placebo-corrected approach was used to evaluate the effects of MIV-711 on the QTcF interval from the Holter ECG recordings. The change-from-baseline QTcF at post-dose time points was analyzed using an ANCOVA model including the treatment, time (categorical), and treatment-by-time interaction as fixed effects, baseline QTcF as a covariate, and subject as random effect. A p value < 0.05 was considered statistically significant. Data are expressed as mean ± SEM.

[3] = single ascending doses 20–600 mg

C#C[C@@H]1CN(C(=O)[C@H](CC(C)C)NC(=O)c2ccc(-c3nc(N4CCN(C)CC4)sc3F)cc2)[C@@H]2C(=O)CO[C@H]12 [MIV-711]
AUC0–t ([1]; 20 mg single oral dose): 0.128 (36) µmol/L × h
AUCinf ([1]; 20 mg single oral dose): 0.158 (32) µmol/L × h
Cmax ([1]; 20 mg single oral dose): 33 nM
Cmax/dose ([1]; 20 mg single oral dose): 0.12 (26)
t½ ([1]; 20 mg single oral dose): 3.4 (13) h
tmax ([1]; 20 mg single oral dose): 1.0 (0.50–2.0) h
AUC0–24h ([1]; 100 mg): 1.1 µM·h
AUC0–t ([1]; 100 mg single oral dose): 1.13 (38) µmol/L × h
AUCinf ([1]; 100 mg single oral dose): 1.17 (37) µmol/L × h
Cmax ([1]; 100 mg single oral dose): 293 nM
Cmax/dose ([1]; 100 mg single oral dose): 0.21 (23)
t½ ([1]; 100 mg single oral dose): 3.7 (15) h
tmax ([1]; 100 mg single oral dose): 1.0 (1.0–2.2) h
Plasma levels at 24 h post-dose ([1]; 100 mg, mostly below LLOQ): < 4 nM
AUC0–t ([1]; 200 mg single oral dose): 2.45 (36) µmol/L × h
AUCinf ([1]; 200 mg single oral dose): 2.51 (35) µmol/L × h
Cmax ([1]; 200 mg single oral dose): 756 nM
Cmax/dose ([1]; 200 mg single oral dose): 0.27 (36)
t½ ([1]; 200 mg single oral dose): 5.0 (16) h
tmax ([1]; 200 mg single oral dose): 1.0 (0.50–1.0) h
AUC0–t ([1]; 400 mg single oral dose): 4.62 (33) µmol/L × h
AUCinf ([1]; 400 mg single oral dose): 4.75 (32) µmol/L × h
Cmax ([1]; 400 mg single oral dose): 1180 nM
Cmax/dose ([1]; 400 mg single oral dose): 0.23 (37)
t½ ([1]; 400 mg single oral dose): 6.5 (44) h
tmax ([1]; 400 mg single oral dose): 1.0 (1.0–1.5) h
AUC0–t ([1]; 600 mg single oral dose): 6.75 (30) µmol/L × h
AUCinf ([1]; 600 mg single oral dose): 6.89 (30) µmol/L × h
Cmax ([1]; 600 mg single oral dose): 1390 nM
Cmax/dose ([1]; 600 mg single oral dose): 0.17 (38)
t½ ([1]; 600 mg single oral dose): 8.3 (34) h
tmax ([1]; 600 mg single oral dose): 1.0 (1.0–3.0) h
Excreted renally unchanged ([1]; data not shown): less than 1%
mean terminal t1/2 ([1]; over the 20–600 mg dose range): 3.4 to 8.3 h
median tmax ([1]; single oral doses): 1 h
Adverse events considered possibly related to treatment ([2]; 6/35, all mild): 17%
Subjects reporting adverse events ([2]; 11/35 MIV-711-treated subjects): 31%
Upper confidence interval of the projected QTcF effect at the highest observed plasma levels ([2]; maximum dose of 600 mg): below 10 ms
Safety and tolerability [2, 3]: safe and well-tolerated
Serious adverse events [2, 3]: no serious adverse events
